For assay [1], the target named is T1, PI3K alpha (Homo sapiens, UniProt P42336).
T1 construct: p85(iSH2) fusion partner (see partner chain) (N); His tag (C); made in house; host or cells: baculovirus; Tn5 (Trichoplusia ni) or TiniPro insect cells
Nature of the assay: PI3K alpha kinase assay (Kinase-Glo luminescence). The class given is biochemical. Put shortly: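 Luminescent ATP-depletion assay (Kinase-Glo) with 10 nM PI3Kα and 10 μg/mL phosphatidylinositol as lipid substrate at 1 μM ATP. Incubation lasts 60 min at room temperature.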

Assay [2] deals with T2, PI3K gamma (Homo sapiens, UniProt P48736).
T2 construct: His tag (C); made in house; host or cells: baculovirus (pVL1393); Tn5 or TiniPro insect cells; construct from Roger Williams lab, MRC LMB
T2 sequence (P48736 144-1102 limits assumed): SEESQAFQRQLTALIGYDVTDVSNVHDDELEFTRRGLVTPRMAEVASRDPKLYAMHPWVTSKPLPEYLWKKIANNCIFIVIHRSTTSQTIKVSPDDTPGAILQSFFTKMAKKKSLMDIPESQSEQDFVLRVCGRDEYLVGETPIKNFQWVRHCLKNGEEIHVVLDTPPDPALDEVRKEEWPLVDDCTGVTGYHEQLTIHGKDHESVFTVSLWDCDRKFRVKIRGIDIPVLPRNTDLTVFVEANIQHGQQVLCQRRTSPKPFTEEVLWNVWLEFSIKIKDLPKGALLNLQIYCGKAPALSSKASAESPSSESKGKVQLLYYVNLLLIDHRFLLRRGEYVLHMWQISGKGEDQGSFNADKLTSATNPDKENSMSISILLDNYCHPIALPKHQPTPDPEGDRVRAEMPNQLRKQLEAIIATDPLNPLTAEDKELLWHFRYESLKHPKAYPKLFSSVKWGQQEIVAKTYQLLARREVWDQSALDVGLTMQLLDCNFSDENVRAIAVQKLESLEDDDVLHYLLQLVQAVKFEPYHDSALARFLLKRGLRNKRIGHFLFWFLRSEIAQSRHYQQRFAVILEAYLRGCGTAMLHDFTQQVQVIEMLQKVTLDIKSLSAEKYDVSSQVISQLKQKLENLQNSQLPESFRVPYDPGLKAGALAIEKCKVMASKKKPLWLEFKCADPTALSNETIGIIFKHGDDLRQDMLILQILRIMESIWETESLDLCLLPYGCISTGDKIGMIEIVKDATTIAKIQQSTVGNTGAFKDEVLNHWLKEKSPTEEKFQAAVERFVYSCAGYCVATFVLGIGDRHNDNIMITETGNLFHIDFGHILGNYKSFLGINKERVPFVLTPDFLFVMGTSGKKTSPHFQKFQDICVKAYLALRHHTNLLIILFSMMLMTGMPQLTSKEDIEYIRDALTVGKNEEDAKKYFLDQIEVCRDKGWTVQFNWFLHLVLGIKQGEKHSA
Nature of the assay: PI3K gamma kinase assay (Kinase-Glo luminescence). In kind it is biochemical. A digest of the protocol:
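PI3Kγ (150 nM) reaction run 120 min at room temperature with phosphatidylinositol substrate (10 μg/mL) and ATP (1 μM) in Tris pH 7.5 buffer containing MgCl2, NaCl, CHAPS and DTT. Remaining ATP detected by Kinase-Glo luminescence; 8 concentrations per compound, IC50 from 4-parameter curve fitting.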

Assay [3] concerns S6 Ribosomal Protein phosphorylation Ser235/236 in TSC1 null mouse embryo fibroblast (MEF) cells. Nature of the assay: Reverse protein array assay, S6 Ribosomal Protein phosphorylation Ser235/236 in TSC1 null MEF cells. In kind it is cell-based. As to conditions: 1 h, pS6 ribosomal protein Ser235/236, 60 minutes incubation, read-out: p-S6 IC50. Put shortly:
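TSC1−/− MEFs, seeded and held ≥20 h at 37 °C/5% CO2, were exposed to 8-step serial compound dilutions (0.02% DMSO final; DMSO vehicle control) for 60 min at 37 °C. Cells were then lysed on ice for 10 min and lysates spotted onto reverse protein array chips.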

The target of assay [4] is T3, mTOR (Homo sapiens, UniProt P42345).
T3 construct: purchased Invitrogen Corporation (Carlsbad/CA, USA) PV4753
T3 sequence (P42345 1360-2549 limits assumed): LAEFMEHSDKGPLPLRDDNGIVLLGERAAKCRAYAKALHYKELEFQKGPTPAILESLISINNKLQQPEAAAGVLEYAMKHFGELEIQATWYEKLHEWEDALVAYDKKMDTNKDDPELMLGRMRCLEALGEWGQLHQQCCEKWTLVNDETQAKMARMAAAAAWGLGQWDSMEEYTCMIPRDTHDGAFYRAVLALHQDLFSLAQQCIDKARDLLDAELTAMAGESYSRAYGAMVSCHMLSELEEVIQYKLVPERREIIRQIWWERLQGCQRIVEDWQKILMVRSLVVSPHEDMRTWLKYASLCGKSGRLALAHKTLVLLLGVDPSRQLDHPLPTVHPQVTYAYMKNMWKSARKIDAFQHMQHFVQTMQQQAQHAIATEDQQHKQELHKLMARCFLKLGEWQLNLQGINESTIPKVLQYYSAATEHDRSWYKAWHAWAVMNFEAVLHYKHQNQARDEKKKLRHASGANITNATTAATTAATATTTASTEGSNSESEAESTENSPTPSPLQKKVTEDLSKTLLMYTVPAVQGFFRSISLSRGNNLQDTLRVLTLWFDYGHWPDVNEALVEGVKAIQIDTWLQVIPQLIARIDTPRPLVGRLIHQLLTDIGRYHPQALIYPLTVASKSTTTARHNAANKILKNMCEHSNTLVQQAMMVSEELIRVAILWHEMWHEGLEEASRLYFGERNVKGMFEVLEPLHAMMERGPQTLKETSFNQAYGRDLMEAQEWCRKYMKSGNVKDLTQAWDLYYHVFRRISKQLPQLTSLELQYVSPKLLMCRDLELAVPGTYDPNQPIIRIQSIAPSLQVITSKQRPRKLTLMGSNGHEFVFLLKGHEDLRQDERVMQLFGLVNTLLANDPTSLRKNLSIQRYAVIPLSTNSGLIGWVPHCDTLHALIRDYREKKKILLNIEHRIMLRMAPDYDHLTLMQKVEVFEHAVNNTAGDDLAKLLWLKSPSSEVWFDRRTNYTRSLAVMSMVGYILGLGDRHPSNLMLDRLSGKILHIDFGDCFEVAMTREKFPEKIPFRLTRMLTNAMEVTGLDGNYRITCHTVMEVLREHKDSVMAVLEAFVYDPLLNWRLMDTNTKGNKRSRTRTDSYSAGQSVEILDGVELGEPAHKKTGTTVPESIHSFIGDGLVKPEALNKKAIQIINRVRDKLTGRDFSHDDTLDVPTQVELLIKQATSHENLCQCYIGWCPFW
Nature of the assay: Biochemical assay for m-TOR by TR-FRET. The settings on record: 8 μM ATP, 400 nM GFP-4EBP1, 0.5 nM mTOR. Put shortly: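 Enzyme 0.5 nM, GFP-4EBP1 400 nM, ATP 8 μM (all final); 50 mM HEPES pH 7.5, 10 mM MnCl2, 1 mM DTT; rt. Detection: Tb-α-p4EBP1 [pT46] 0.5 nM in EDTA, TR-FRET, 15 min. Reference compound on every plate, 16-point duplicate dilutions.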

Assay [5] has as its target T4, PI3K delta (Homo sapiens, UniProt O00329).
T4 construct: for the full-length p110-d subunit are generated and fused by overlapping PCR; p85(iSH2) fusion partner (see partner chain) (N); His tag (C); made in house; host or cells: baculovirus; Tn5 (Trichoplusia ni) or TiniPro insect cells
The assay is described as follows: PI3K delta kinase assay (Kinase-Glo luminescence). The class given is biochemical. Put shortly:
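Inhibition is derived from luminescent detection of unconsumed ATP. The reaction runs for one hour at ambient temperature and contains the δ isoform fusion protein, phosphatidylinositol substrate and low (1 μM) ATP. Eight compound concentrations are tested in single, and a 4-parameter logistic model is used to calculate IC50.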

The structures appear in SMILES notation.

The text below walks through data of US20140005163A1 (NOVARTIS AG, priority 2010, published 2014).

T4 sequence (O00329 with tags, fused parts or gaps limits assumed): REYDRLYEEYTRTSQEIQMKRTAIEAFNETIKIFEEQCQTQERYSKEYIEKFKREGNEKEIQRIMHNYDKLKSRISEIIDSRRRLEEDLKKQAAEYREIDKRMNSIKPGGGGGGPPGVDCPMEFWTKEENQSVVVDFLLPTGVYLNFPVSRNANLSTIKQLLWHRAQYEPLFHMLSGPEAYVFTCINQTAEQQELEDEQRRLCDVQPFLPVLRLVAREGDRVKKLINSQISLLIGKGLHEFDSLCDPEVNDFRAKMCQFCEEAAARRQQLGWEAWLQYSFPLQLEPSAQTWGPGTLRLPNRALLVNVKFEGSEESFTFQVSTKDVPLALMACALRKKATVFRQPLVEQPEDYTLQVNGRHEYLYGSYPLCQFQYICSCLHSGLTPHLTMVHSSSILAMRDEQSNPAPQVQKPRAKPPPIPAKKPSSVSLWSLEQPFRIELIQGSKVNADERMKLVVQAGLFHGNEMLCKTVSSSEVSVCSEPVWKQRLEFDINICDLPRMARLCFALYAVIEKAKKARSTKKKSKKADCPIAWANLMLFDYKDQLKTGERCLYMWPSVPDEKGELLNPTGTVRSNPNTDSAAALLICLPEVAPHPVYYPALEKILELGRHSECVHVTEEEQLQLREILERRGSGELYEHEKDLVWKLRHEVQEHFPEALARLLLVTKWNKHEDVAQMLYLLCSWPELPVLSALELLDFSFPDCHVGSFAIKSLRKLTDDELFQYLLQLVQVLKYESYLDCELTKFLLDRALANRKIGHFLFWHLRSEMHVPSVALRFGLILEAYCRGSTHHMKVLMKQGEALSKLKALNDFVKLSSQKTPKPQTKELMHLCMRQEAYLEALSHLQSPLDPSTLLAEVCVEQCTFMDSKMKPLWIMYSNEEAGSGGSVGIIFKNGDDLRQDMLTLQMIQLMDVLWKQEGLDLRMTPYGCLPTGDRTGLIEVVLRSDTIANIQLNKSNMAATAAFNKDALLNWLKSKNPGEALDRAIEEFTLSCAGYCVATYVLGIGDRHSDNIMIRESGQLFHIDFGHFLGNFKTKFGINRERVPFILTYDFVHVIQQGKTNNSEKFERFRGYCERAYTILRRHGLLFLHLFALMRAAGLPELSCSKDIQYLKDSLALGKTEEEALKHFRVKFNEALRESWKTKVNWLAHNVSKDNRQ
T1 sequence (P42336 with tags, fused parts or gaps limits assumed): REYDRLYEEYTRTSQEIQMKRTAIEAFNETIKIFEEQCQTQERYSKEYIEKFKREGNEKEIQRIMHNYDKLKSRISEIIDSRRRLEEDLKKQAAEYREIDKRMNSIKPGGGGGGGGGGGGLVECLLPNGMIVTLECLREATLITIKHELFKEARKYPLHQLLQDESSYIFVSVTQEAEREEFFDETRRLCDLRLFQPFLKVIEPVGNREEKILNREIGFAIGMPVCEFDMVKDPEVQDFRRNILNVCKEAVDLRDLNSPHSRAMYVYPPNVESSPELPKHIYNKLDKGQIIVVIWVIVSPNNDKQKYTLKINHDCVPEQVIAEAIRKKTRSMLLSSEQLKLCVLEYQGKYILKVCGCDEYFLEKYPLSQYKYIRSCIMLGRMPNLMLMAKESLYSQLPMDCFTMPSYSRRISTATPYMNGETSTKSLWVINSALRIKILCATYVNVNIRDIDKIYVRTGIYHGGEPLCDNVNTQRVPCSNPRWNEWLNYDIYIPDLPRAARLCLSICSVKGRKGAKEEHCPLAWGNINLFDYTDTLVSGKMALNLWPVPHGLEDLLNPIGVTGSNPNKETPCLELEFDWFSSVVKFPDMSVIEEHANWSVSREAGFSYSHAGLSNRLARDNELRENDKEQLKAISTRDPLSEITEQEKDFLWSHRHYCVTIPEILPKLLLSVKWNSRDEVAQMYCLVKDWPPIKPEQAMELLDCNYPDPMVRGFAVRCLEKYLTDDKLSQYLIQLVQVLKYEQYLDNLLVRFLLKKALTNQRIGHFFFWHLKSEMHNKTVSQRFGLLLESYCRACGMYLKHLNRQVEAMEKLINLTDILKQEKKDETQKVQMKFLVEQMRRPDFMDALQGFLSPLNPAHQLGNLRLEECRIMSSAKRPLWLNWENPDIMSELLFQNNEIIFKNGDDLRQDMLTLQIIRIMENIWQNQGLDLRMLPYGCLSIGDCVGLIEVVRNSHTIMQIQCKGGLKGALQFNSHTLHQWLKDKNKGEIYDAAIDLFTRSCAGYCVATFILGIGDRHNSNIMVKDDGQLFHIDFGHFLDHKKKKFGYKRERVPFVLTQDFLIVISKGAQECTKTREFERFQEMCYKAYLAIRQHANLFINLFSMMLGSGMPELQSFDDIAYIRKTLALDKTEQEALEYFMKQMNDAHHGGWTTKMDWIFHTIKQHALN

Regarding `Cc1nn(C)cc1-n1c(=O)n(C)c2cnc3ccc(-c4ccc5c(c4)CC(=O)N5)cc3c21` [Example 49, 1-(1,3-Dimethyl-1H-pyrazol-4-yl)-3-methyl-8-(2-oxo-2,3-dihydro-1H-indol-5-yl)-1,3-dihydro-imidazo[4,5-c]quinolin-2-one], the IC50 (in general, the midpoint of a concentration-inhibition curve) in assay [1] is 47 nM; in assay [2], 278 nM; in assay [3], 217 nM; in assay [4], 46 nM; in assay [5], 106 nM.

As for `Cc1nn(C)cc1-n1c(=O)n(C)c2cnc3ccc(-c4cccc(S(=O)(=O)N(C)C)c4)cc3c21` [Example 53.1, 3-[1-(1,3-Dimethyl-1H-pyrazol-4-yl)-3-methyl-2-oxo-2,3-dihydro-1H-imidazo[4,5-c]quinolin-8-yl]-N,N-dimethyl-benzenesulfonamide], the IC50 in assay [1] amounted to 16 nM; in assay [2] it was 190 nM; in assay [3] it was 43 nM; in assay [4], 107 nM; in assay [5] it was 12 nM.

In the case of `COCc1cncc(-c2ccc3ncc4c(c3c2)n(-c2cn(C)nc2C)c(=O)n4C)c1` [Example 54.1, 1-(1,3-Dimethyl-1H-pyrazol-4-yl)-8-(5-methoxymethyl-pyridin-3-yl)-3-methyl-1,3-dihydro-imidazo[4,5-c]quinolin-2-one], the IC50 is 17 nM in assay [1]; 157 nM in assay [2]; 5 nM in assay [3]; 79 nM in assay [4]; 19 nM in assay [5].

For the molecule `CCOc1cncc(-c2ccc3ncc4c(c3c2)n(-c2cn(C)nc2Cl)c(=O)n4C)c1` [Example 56.4, 1-(3-Chloro-1-methyl-1H-pyrazol-4-yl)-8-(5-ethoxy-pyridin-3-yl)-3-methyl-1,3-dihydro-imidazo[4,5-c]quinolin-2-one], the IC50 in assay [1] came out at 5 nM; in assay [2], 121 nM; in assay [3] it was 1 nM; in assay [4] it was 16 nM; in assay [5], 6 nM.

As for `Cc1nn(C)cc1-n1c(=O)n(C)c2cnc3ccc(-c4cncc(OC(C)C)c4)cc3c21` [Example 58.1, 1-(1,3-Dimethyl-1H-pyrazol-4-yl)-8-(5-isopropoxy-pyridin-3-yl)-3-methyl-1,3-dihydro-imidazo[4,5-c]quinolin-2-one], the IC50 in assay [1] was 6 nM; in assay [2] it was 95 nM; in assay [3], 3 nM; in assay [4], 14 nM; in assay [5] it was 8 nM.

For `Cc1nn(C)cc1-n1c(=O)n(C)c2cnc3ccc(-c4cnc5c(c4)nnn5C)cc3c21` [Example 72, 1-(1,3-Dimethyl-1H-pyrazol-4-yl)-3-methyl-8-(3-methyl-3H-[1,2,3]triazolo[4,5-b]pyridin-6-yl)-1,3-dihydro-imidazo[4,5-c]quinolin-2-one], the IC50 in assay [1] came out at 29 nM; in assay [2], 341 nM; in assay [3], 58 nM; in assay [4] it was 179 nM; in assay [5], 29 nM.

Take `Cc1nn(C)cc1-n1c(=O)n(C)c2cnc3ccc(-c4cnc5c(c4)ncn5C)cc3c21` [Example 74, 1-(1,3-Dimethyl-1H-pyrazol-4-yl)-3-methyl-8-(3-methyl-3H-imidazo[4,5-b]pyridin-6-yl)-1,3-dihydro-imidazo[4,5-c]quinolin-2-one]: the IC50 in assay [1] stood at 20 nM; in assay [2], 307 nM; in assay [3] it was 23 nM; in assay [4], 30 nM; in assay [5] it was 43 nM.

For the molecule `Cc1nn(C)cc1-n1c(=O)n(C)c2cnc3ccc(-c4ccc(OCCO)nc4)cc3c21` [Example 107, 1-(1,3-Dimethyl-1H-pyrazol-4-yl)-8-[6-(2-hydroxy-ethoxy)-pyridin-3-yl]-3-methyl-1,3-dihydro-imidazo[4,5-c]quinolin-2-one], the IC50 in assay [1] turned out to be 17 nM; in assay [2], 147 nM; in assay [3], 46 nM; in assay [4], 60 nM; in assay [5], 28 nM.

Take `CCOc1ccc(-c2ccc3ncc4[nH]c(=O)n(-c5cn(C)nc5C)c4c3c2)cn1` [Example 110, 1-(1,3-Dimethyl-1H-pyrazol-4-yl)-8-(6-ethoxy-pyridin-3-yl)-1,3-dihydro-imidazo[4,5-c]quinolin-2-one]: the IC50 in assay [1] turned out to be 5 nM; in assay [2], 337 nM; in assay [3] it was 78 nM; in assay [4] it was 14 nM; in assay [5], 42 nM.

As to `CNc1ccc(-c2ccc3ncc4c(c3c2)n(-c2cn(C)nc2C)c(=O)n4C)cn1` [Example 118.2, 1-(1,3-Dimethyl-1H-pyrazol-4-yl)-3-methyl-8-(6-methylamino-pyridin-3-yl)-1,3-dihydro-imidazo[4,5-c]quinolin-2-one], the IC50 was found to be 11 nM in assay [1]; 279 nM in assay [2]; 1 nM in assay [3]; 4 nM in assay [4]; 13 nM in assay [5].

For `COc1ccc(-c2ccc3ncc4[nH]c(=O)n(-c5cn(C)nc5C)c4c3n2)cc1OC` [Example 249, 8-(3,4-dimethoxy-phenyl)-1-(1,3-dimethyl-1H-pyrazol-4-yl)-1,3-dihydro-1,3,5,9-tetraaza-cyclopenta[a]naphthalen-2-one], the IC50 amounted to 5 nM in assay [1]; 125 nM in assay [2]; 2 nM in assay [3]; 30 nM in assay [4]; 8 nM in assay [5].

As for `COc1ccc(-c2ccc3ncc4c(c3n2)n(-c2cn(C)nc2C)c(=O)n4C)cc1OC` [Example 250, 8-(3,4-Dimethoxy-phenyl)-1-(1,3-dimethyl-1H-pyrazol-4-yl)-3-methyl-1,3-dihydro-1,3,5,9-tetraaza-cyclopenta[a]naphthalen-2-one], the IC50 stood at 5 nM in assay [1]; 185 nM in assay [2]; 13 nM in assay [3]; 135 nM in assay [4]; 17 nM in assay [5].
